Results on 27 compounds are retold here after US10323022B2, “Pyrrolidinyl urea, pyrrolidinyl thiourea and pyrrolidinyl guanidine compounds as TrkA kinase inhibitors” (Array BioPharma Inc., priority 2011, dated 2019).

The target in the test is TrkA (Homo sapiens (Human), UniProt P04629). In words: TrkA Omnia Assay. The conditions noted are these: averaged IC50; 20 nM enzyme, 500 μM ATP, 10 μM peptide substrate. The format is biochemical. The procedure, abridged: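 Continuous fluorescent kinase read-out (ex 360 nm, em 485 nm) over 70 min, with initial rates fitted to 4- or 5-parameter logistic curves for IC50. Final conditions: 500 μM ATP, 10 μM Omnia Tyr Peptide #4, 20 nM TrkA, MOPS pH 7.5 buffer with MgCl2 and Triton X-100; enzyme and compound preincubated 10 min at ambient temperature.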

Structures are written as SMILES.

Chain of TrkA (P04629 33-796): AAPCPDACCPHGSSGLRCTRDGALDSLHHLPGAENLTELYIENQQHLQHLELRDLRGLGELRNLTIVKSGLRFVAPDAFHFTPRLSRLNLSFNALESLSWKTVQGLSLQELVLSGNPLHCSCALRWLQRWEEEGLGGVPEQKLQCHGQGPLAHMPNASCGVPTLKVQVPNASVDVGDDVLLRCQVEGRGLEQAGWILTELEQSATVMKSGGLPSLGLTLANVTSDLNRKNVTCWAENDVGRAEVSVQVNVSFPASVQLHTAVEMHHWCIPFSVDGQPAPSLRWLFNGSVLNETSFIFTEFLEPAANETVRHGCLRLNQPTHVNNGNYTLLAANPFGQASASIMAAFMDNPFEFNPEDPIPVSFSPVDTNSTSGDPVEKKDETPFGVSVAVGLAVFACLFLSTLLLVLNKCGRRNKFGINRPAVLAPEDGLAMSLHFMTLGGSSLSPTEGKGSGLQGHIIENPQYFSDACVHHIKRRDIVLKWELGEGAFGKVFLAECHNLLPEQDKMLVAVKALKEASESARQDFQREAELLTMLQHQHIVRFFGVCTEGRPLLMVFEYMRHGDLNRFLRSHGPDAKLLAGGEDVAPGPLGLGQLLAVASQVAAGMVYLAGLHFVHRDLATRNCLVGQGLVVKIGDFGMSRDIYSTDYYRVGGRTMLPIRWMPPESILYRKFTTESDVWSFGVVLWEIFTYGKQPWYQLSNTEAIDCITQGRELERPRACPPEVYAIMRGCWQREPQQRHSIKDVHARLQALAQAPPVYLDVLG

Usually IC50 stands for the concentration needed to halve the response being measured. In the case of `COCCN1C[C@@H](NC(=O)Nc2c(C)c(-c3ccc(=O)n(C(C)C)c3)nn2-c2ccccc2)[C@H](c2ccc(F)cc2)C1` [Example 536, 1-((3S,4R)-4-(4-fluorophenyl)-1-(2-methoxyethyl)pyrrolidin-3-yl)-3-(3-(1-isopropyl-6-oxo-1,6-dihydropyridin-3-yl)-4-methyl-1-phenyl-1H-pyrazol-5-yl)urea], the IC50 is less than 100 nM.

Turning to `COCCN1C[C@@H](NC(=O)Nc2c(C)c(-c3nn(C)c(=O)o3)nn2-c2ccccc2)[C@H](c2ccc(F)c(F)c2)C1` [Example 602, 1-((3S,4R)-4-(3,4-difluorophenyl)-1-(2-methoxyethyl)pyrrolidin-3-yl)-3-(4-methyl-3-(4-methyl-5-oxo-4,5-dihydro-1,3,4-oxadiazol-2-yl)-1-phenyl-1H-pyrazol-5-yl)urea], the IC50 was less than 100 nM.

As for `COCCN1C[C@@H](NC(=O)Nc2c(C)c([C@H]3C[C@@H](O)C3)nn2-c2ccccc2)[C@H](c2ccc(F)cc2)C1` [Example 454, 1-((3S,4R)-4-(4-fluorophenyl)-1-(2-methoxyethyl)pyrrolidin-3-yl)-3-(3-(cis-3-hydroxycyclobutyl)-4-methyl-1-phenyl-1H-pyrazol-5-yl)urea], the IC50 was less than 100 nM.

Take `COCCN1C[C@@H](NC(=O)Nc2c(C)c(C(C)C)nn2-c2ccccc2)[C@H](c2ccccc2)C1` [Example 80, 1-(3-isopropyl-4-methyl-1-phenyl-1H-pyrazol-5-yl)-3-((3S,4R)-1-(2-methoxy-ethyl)-4-phenylpyrrolidin-3-yl)urea]: the IC50 is less than 100 nM.

`COCCN1C[C@@H](NC(=O)Nc2cc(-c3ccccc3)nn2-c2ccccc2)[C@H](c2ccc(F)c(F)c2)C1` [Example 126, 1-((3S,4R)-4-(3,4-difluorophenyl)-1-(2-methoxyethyl)pyrrolidin-3-yl)-3-(1,3-diphenyl-1H-pyrazol-5-yl)urea] had an IC50 of less than 100 nM.

Turning to `COCCN1C[C@@H](NC(=O)Nc2c(C)c(OC[C@@H](C)O)nn2-c2ccccc2)[C@H](c2ccc(F)c(F)c2)C1` [Example 365, 1-((3S,4R)-4-(3,4-difluorophenyl)-1-(2-methoxyethyl)pyrrolidin-3-yl)-3-(3-((R)-2-hydroxypropoxy)-4-methyl-1-phenyl-1H-pyrazol-5-yl)urea], the IC50 is less than 100 nM.

As to `COCCN1C[C@@H](NC(=O)Nc2cc(-c3ccncc3)nn2C)[C@H](c2ccccc2)C1` [Example 96, 1-((3S,4R)-1-(2-methoxy-ethyl)-4-phenylpyrrolidin-3-yl)-3-(1-methyl-3-(pyridin-4-yl)-1H-pyrazol-5-yl)urea], the IC50 was less than 100 nM.

Take `COCCN1C[C@@H](NC(=O)Nc2cc(C3CC3)nn2-c2ccccc2)[C@H](c2ccccc2)C1` (relative stereo) [Example 9, 1-(3-cyclopropyl-1-phenyl-1H-pyrazol-5-yl)-3-(trans-1-(2-methoxyethyl)-4-phenylpyrrolidin-3-yl)urea]: the IC50 was less than 100 nM.

Consider `CCOC(=O)COc1nn(-c2ccccc2)c(NC(=O)N[C@@H]2CN(CCOC)C[C@H]2c2ccc(F)c(F)c2)c1C` [Example 361, ethyl 2-((5-(3-((3S,4R)-4-(3,4-difluorophenyl)-1-(2-methoxyethyl)pyrrolidin-3-yl)ureido)-4-methyl-1-phenyl-1H-pyrazol-3-yl)oxy)acetate], for which the IC50 is less than 100 nM.

As for `COCCN1C[C@@H](NC(=O)Nc2c(C)c(-c3nc(C(F)(F)F)no3)nn2-c2ccccc2)[C@H](c2ccc(F)c(F)c2)C1` [Example 299, 1-((3S,4R)-4-(3,4-difluorophenyl)-1-(2-methoxyethyl)pyrrolidin-3-yl)-3-(4-methyl-1-phenyl-3-(3-(trifluoromethyl)-1,2,4-oxadiazol-5-yl)-1H-pyrazol-5-yl)urea], the IC50 is less than 100 nM.

`COCCN1C[C@@H](NC(=O)Nc2c(C)c(C)nn2C2CCCCC2)[C@H](c2ccc(F)c(F)c2)C1` [Example 473, 1-(1-cyclohexyl-3,4-dimethyl-1H-pyrazol-5-yl)-3-((3 S,4R)-4-(3,4-difluorophenyl)-1-(2-methoxyethyl)pyrrolidin-3-yl)urea] registered an IC50 of less than 100 nM.

Consider `CCOc1nn(-c2ccccc2)c(NC(=O)N[C@@H]2CN(CCOC)C[C@H]2c2cc(F)cc(F)c2)c1CO` [Example 464, 1-((3S,4R)-4-(3,5-difluorophenyl)-1-(2-methoxyethyl)pyrrolidin-3-yl)-3-(3-ethoxy-4-(hydroxymethyl)-1-phenyl-1H-pyrazol-5-yl)urea], for which the IC50 is less than 100 nM.

In turn, `COCCN1C[C@@H](NC(=O)Nc2c(C)c(-c3cnn(S(C)(=O)=O)c3)nn2-c2ccccc2)[C@H](c2ccc(F)c(F)c2)C1` [Example 502, 1-((3S,4R)-4-(3,4-difluorophenyl)-1-(2-methoxyethyl)pyrrolidin-3-yl)-3-(4-methyl-1′-(methylsulfonyl)-1-phenyl-1H, 1′H-[3,4′-bipyrazol]-5-yl)urea] had an IC50 of less than 100 nM.

Compound `COCCN1C[C@@H](NC(=O)Nc2c(Cl)c(OCC(C)(C)O)nn2-c2ccccc2)[C@H](c2ccc(F)cc2)C1` [Example 371, 1-(4-chloro-3-(2-hydroxy-2-methylpropoxy)-1-phenyl-1H-pyrazol-5-yl)-3-((3S,4R)-4-(4-fluorophenyl)-1-(2-methoxyethyl)pyrrolidin-3-yl)urea] returned an IC50 of less than 100 nM.

As for `COCCN1C[C@@H](NC(=O)Nc2c(C)c(C)nn2-c2ccccc2)[C@H](c2ccc(F)cc2)C1` [Example 129, 1-(3,4-dimethyl-1-phenyl-1H-pyrazol-5-yl)-3-((3S,4R)-4-(4-fluorophenyl)-1-(2-methoxyethyl)pyrrolidin-3-yl)urea], the IC50 is less than 100 nM.

Consider `COCCN1C[C@@H](NC(=O)Nc2c(C)c(OC(=O)N(C)C)nn2-c2ccccc2)[C@H](c2ccc(F)c(F)c2)C1` [Example 396, 5-(3-((3S,4R)-4-(3,4-difluorophenyl)-1-(2-methoxyethyl)pyrrolidin-3-yl)ureido)-4-methyl-1-phenyl-1H-pyrazol-3-yl dimethylcarbamate], for which the IC50 was less than 100 nM.

As to `COCCN1C[C@@H](NC(=O)Nc2c(C(N)=O)c(C)nn2-c2ccccc2)[C@H](c2ccc(F)c(F)c2)C1` [Example 620, 5-(3-((3S,4R)-4-(3,4-difluoro-phenyl)-1-(2-methoxyethyl)pyrrolidin-3-yl)ureido)-3-methyl-1-phenyl-1H-pyrazole-4-carboxamide], the IC50 was less than 100 nM.

Take `CCOc1nn(-c2ccccc2)c(NC(=O)N[C@H]2CN(CC(F)(F)F)C[C@@H]2c2ccccc2)c1C` [Example 267, 1-(3-ethoxy-4-methyl-1-phenyl-1H-pyrazol-5-yl)-3-((3R,4S)-4-phenyl-1-(2,2,2-trifluoroethyl)pyrrolidin-3-yl)urea]: the IC50 was less than 100 nM.

With `COCCN1C[C@@H](NC(=O)Nc2c(C)c(=O)[nH]n2-c2ccccc2)[C@H](c2ccc(F)c(Cl)c2)C1` (relative stereo) [Example 610, 1-((trans)-4-(3-chloro-4-fluorophenyl)-1-(2-methoxyethyl)pyrrolidin-3-yl)-3-(4-methyl-5-oxo-2-phenyl-2,5-dihydro-1H-pyrazol-3-yl)urea], the IC50 was less than 100 nM.

In turn, `COCCN1C[C@@H](NC(=O)Nc2c3c(nn2-c2ccccc2)C(C)(C)CCC3)[C@H](c2ccccc2)C1` (relative stereo) [Example 37, 1-(7,7-dimethyl-2-phenyl-4,5,6,7-tetrahydro-2H-indazol-3-yl)-3-(trans-1-(2-methoxyethyl)-4-phenylpyrrolidin-3-yl)urea] came in with an IC50 of less than 100 nM.

In the case of `COCCN1C[C@@H](NC(=O)Nc2ccnn2-c2ccccc2)[C@H](c2ccccc2)C1` (relative stereo) [Example 15, 1-(trans-1-(2-methoxyethyl)-4-phenylpyrrolidin-3-yl)-3-(1-phenyl-1H-pyrazol-5-yl)urea], the IC50 was in the range of 100 to 1000 nM.

In turn, `CCOC(=O)c1nn(-c2ccccc2)c(NC(=O)N[C@@H]2CN(CCOC)C[C@H]2c2ccc(F)c(F)c2)c1C` [Example 291, ethyl 5-(3-((3S,4R)-4-(3,4-difluorophenyl)-1-(2-methoxyethyl)pyrrolidin-3-yl)ureido)-4-methyl-1-phenyl-1H-pyrazole-3-carboxylate] registered an IC50 of less than 100 nM.

The compound `COCCN1C[C@@H](NC(=O)Nc2c(C)c(-c3ncn(C)n3)nn2-c2ccccc2)[C@H](c2ccc(F)c(F)c2)C1` [Example 347, 1-((3S,4R)-4-(3,4-difluorophenyl)-1-(2-methoxyethyl)pyrrolidin-3-yl)-3-(4-methyl-3-(1-methyl-1H-1,2,4-triazol-3-yl)-1-phenyl-1H-pyrazol-5-yl)urea] had an IC50 of less than 100 nM.

Compound `COCCN1C[C@@H](NC(=O)Nc2c(C)c(=O)[nH]n2-c2ccccc2)[C@H](c2ccc(Cl)c(F)c2)C1` (relative stereo) [Example 609, 1-((trans)-4-(4-chloro-3-fluorophenyl)-1-(2-methoxyethyl)pyrrolidin-3-yl)-3-(4-methyl-5-oxo-2-phenyl-2,5-dihydro-1H-pyrazol-3-yl)urea] had a concentration for half-maximal inhibition (IC50) of less than 100 nM.

Compound `COCCN1C[C@@H](NC(=O)Nc2c3c(nn2-c2cnn(C)c2)CCC3)[C@H](c2ccccc2)C1` (relative stereo) [Example 33, 1-(trans-1-(2-methoxyethyl)-4-phenylpyrrolidin-3-yl)-3-(2-(1-methyl-1H-pyrazol-4-yl)-2,4,5,6-tetrahydrocyclo-penta[c]pyrazol-3-yl)urea] showed an IC50 of 100 to 1000 nM.

`COCCN1C[C@@H](NC(=O)Nc2c(Cl)c(C(F)(F)CO)nn2-c2ccccc2)[C@H](c2ccc(F)cc2)C1` [Example 411, 1-(4-chloro-3-(1,1-difluoro-2-hydroxyethyl)-1-phenyl-1H-pyrazol-5-yl)-3-((3S,4R)-4-(4-fluorophenyl)-1-(2-methoxyethyl)pyrrolidin-3-yl)urea] registered an IC50 of less than 100 nM.

`COCCN1C[C@@H](NC(=O)Nc2c(C)c(=O)[nH]n2-c2ccccc2)[C@H](c2cccc(F)c2)C1` [Example 613, 1-((3S,4R)-4-(3-fluorophenyl)-1-(2-methoxyethyl)pyrrolidin-3-yl)-3-(4-methyl-5-oxo-2-phenyl-2,5-dihydro-1H-pyrazol-3-yl)urea] displayed an IC50 of less than 100 nM.
